For 7 cell lines, relative viability results are on record in the supplement of paper PMC10307832.

What all share (experiment): relative viability (nuclei count vs DMSO), 5 days (fraction); higher = more cells survive
Compound in the test “XMD13-2 + Phenformin”: C1CC1C(=O)NC2=NNC3=C2C=CC(=C3)C4=CC(=CC=C4)C(=O)NC5CC5 [XMD13-2] + N=C(N)NC(=N)NCCc1ccccc1 [Phenformin] (partner 250 µM)
The gist of the method:
(§1)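 Lung cancer cell lines were seeded in 1536-well plates and dosed by pin tool the next day, with either a single drug or a fixed anchor-drug dose combined with five library-drug doses (not always all listed) spaced in √10 steps. Five days later, one step fixed the cells and stained their nuclei (final 0.05% Triton X-100, 1% formaldehyde, 1 ug/ml Hoechst), and nuclei were counted on 4× images. Relative viability is the nuclei count in treated wells divided by the count in vehicle wells, and each value is the median of duplicate plates.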

Compound in the test “XMD13-2 + Palbociclib”: C1CC1C(=O)NC2=NNC3=C2C=CC(=C3)C4=CC(=CC=C4)C(=O)NC5CC5 [XMD13-2] + CC(=O)c1c(C)c2cnc(Nc3ccc(N4CCNCC4)cn3)nc2n(C2CCCC2)c1=O [Palbociclib] (partner 0.5 µM)
The method in brief:
as §1

Compound in test [1]: Cc1ccc(C(=O)Nc2cccc(C(F)(F)F)c2)cc1Nc1cncc(C(N)=O)c1 [ALW-II-49-7] + CC(=O)c1c(C)c2cnc(Nc3ccc(N4CCNCC4)cn3)nc2n(C2CCCC2)c1=O [Palbociclib] (partner 0.5 µM)
The method in brief:
as §1

Compound in the test “Dasatinib + Decitabine”: Cc1nc(Nc2ncc(C(=O)Nc3c(C)cccc3Cl)s2)cc(N2CCN(CCO)CC2)n1 [Dasatinib] + Nc1ncn([C@H]2C[C@H](O)[C@@H](CO)O2)c(=O)n1 [Decitabine] (partner 2 µM)
The gist of the method: as §1

As for HARA, the relative viability was 0.477 with XMD13-2 + Phenformin (first compound 0.05 µM); 0.438 in the test with XMD13-2 + Phenformin (first compound 0.1581 µM); 0.474 with XMD13-2 + Phenformin (first compound 0.5 µM); 0.44 with XMD13-2 + Phenformin (first compound 1.581 µM); 0.485 in the test with XMD13-2 + Phenformin (first compound 5 µM); 0.265 in the test with XMD13-2 + Palbociclib (first compound 0.05 µM). Besides, the relative viability amounted to 0.313 with XMD13-2 + Palbociclib (first compound 0.1581 µM); 0.25 with XMD13-2 + Palbociclib (first compound 0.5 µM); 0.273 with XMD13-2 + Palbociclib (first compound 1.581 µM); 0.245 in the test with XMD13-2 + Palbociclib (first compound 5 µM); 0.239 in test [1] (first compound 0.08 µM); 0.265 in test [1] (first compound 0.253 µM). The relative viability in test [1] (first compound 0.8 µM) came out at 0.249; in test [1] (first compound 2.53 µM) it was 0.261; in test [1] (first compound 8 µM), 0.254; in the test with Dasatinib + Decitabine (first compound 0.005 µM), 0.578; with Dasatinib + Decitabine (first compound 0.01581 µM), 0.47; with Dasatinib + Decitabine (first compound 0.05 µM), 0.549. Moreover, the relative viability in the test with Dasatinib + Decitabine (first compound 0.1581 µM) was 0.305; with Dasatinib + Decitabine (first compound 0.5 µM), 0.221.

With HCC-15, the relative viability with XMD13-2 + Phenformin (first compound 0.05 µM) is 0.609; with XMD13-2 + Phenformin (first compound 0.1581 µM), 0.523; with XMD13-2 + Phenformin (first compound 0.5 µM) it was 0.546; in the test with XMD13-2 + Phenformin (first compound 1.581 µM), 0.456; in the test with XMD13-2 + Phenformin (first compound 5 µM), 0.407; in the test with XMD13-2 + Palbociclib (first compound 0.05 µM), 0.798. Further, the relative viability was found to be 0.684 with XMD13-2 + Palbociclib (first compound 0.1581 µM); 0.803 with XMD13-2 + Palbociclib (first compound 0.5 µM); 0.709 with XMD13-2 + Palbociclib (first compound 1.581 µM); 0.594 with XMD13-2 + Palbociclib (first compound 5 µM); 0.729 in test [1] (first compound 0.08 µM); 0.722 in test [1] (first compound 0.253 µM). In addition, the relative viability in test [1] (first compound 0.8 µM) is 0.704; in test [1] (first compound 2.53 µM) it was 0.712; in test [1] (first compound 8 µM), 0.68; with Dasatinib + Decitabine (first compound 0.005 µM) it was 0.609; with Dasatinib + Decitabine (first compound 0.01581 µM) it was 0.606; in the test with Dasatinib + Decitabine (first compound 0.05 µM), 0.496. For the same cell line, the relative viability with Dasatinib + Decitabine (first compound 0.1581 µM) was determined as 0.428; with Dasatinib + Decitabine (first compound 0.5 µM), 0.466.

As for HCC-44, the relative viability is 0.217 with XMD13-2 + Phenformin (first compound 0.05 µM); 0.161 with XMD13-2 + Phenformin (first compound 0.1581 µM); 0.213 in the test with XMD13-2 + Phenformin (first compound 0.5 µM); 0.269 in the test with XMD13-2 + Phenformin (first compound 1.581 µM); 0.183 in the test with XMD13-2 + Phenformin (first compound 5 µM); 0.978 with XMD13-2 + Palbociclib (first compound 0.05 µM). The relative viability is 0.912 with XMD13-2 + Palbociclib (first compound 0.1581 µM); 0.959 in the test with XMD13-2 + Palbociclib (first compound 0.5 µM); 0.944 with XMD13-2 + Palbociclib (first compound 1.581 µM); 0.96 in the test with XMD13-2 + Palbociclib (first compound 5 µM); 0.961 in test [1] (first compound 0.08 µM); 1.02 in test [1] (first compound 0.253 µM). In addition, the relative viability in test [1] (first compound 0.8 µM) amounted to 0.972; in test [1] (first compound 2.53 µM), 0.871; in test [1] (first compound 8 µM) it was 0.864; in the test with Dasatinib + Decitabine (first compound 0.005 µM), 1.04; in the test with Dasatinib + Decitabine (first compound 0.01581 µM), 0.915; in the test with Dasatinib + Decitabine (first compound 0.05 µM), 1.04. Further, the results for the relative viability with Dasatinib + Decitabine (first compound 0.1581 µM) and in the test with Dasatinib + Decitabine (first compound 0.5 µM) were 0.886 and 0.624, respectively.

Take HCC-78: the relative viability in the test with XMD13-2 + Phenformin (first compound 0.05 µM) turned out to be 0.831; in the test with XMD13-2 + Phenformin (first compound 0.1581 µM), 0.755; with XMD13-2 + Phenformin (first compound 0.5 µM), 0.661; with XMD13-2 + Phenformin (first compound 1.581 µM), 0.671; in the test with XMD13-2 + Phenformin (first compound 5 µM), 0.684; with XMD13-2 + Palbociclib (first compound 0.05 µM) it was 0.45. In addition, the relative viability in the test with XMD13-2 + Palbociclib (first compound 0.1581 µM) amounted to 0.459; in the test with XMD13-2 + Palbociclib (first compound 0.5 µM), 0.448; with XMD13-2 + Palbociclib (first compound 1.581 µM), 0.438; with XMD13-2 + Palbociclib (first compound 5 µM), 0.483; in test [1] (first compound 0.08 µM), 0.434; in test [1] (first compound 0.253 µM), 0.47. Moreover, the relative viability in test [1] (first compound 0.8 µM) was determined as 0.488; in test [1] (first compound 2.53 µM), 0.509; in test [1] (first compound 8 µM), 0.416; in the test with Dasatinib + Decitabine (first compound 0.005 µM), 0.615; with Dasatinib + Decitabine (first compound 0.01581 µM) it was 0.608; in the test with Dasatinib + Decitabine (first compound 0.05 µM) it was 0.599. Further, the relative viability with Dasatinib + Decitabine (first compound 0.1581 µM) turned out to be 0.429; in the test with Dasatinib + Decitabine (first compound 0.5 µM), 0.326.

HCC-366: the relative viability in the test with XMD13-2 + Phenformin (first compound 0.05 µM) was 0.705; with XMD13-2 + Phenformin (first compound 0.1581 µM), 0.577; with XMD13-2 + Phenformin (first compound 0.5 µM) it was 0.633; in the test with XMD13-2 + Phenformin (first compound 1.581 µM), 0.569; in the test with XMD13-2 + Phenformin (first compound 5 µM) it was 0.611; with XMD13-2 + Palbociclib (first compound 0.05 µM), 0.466. For the same cell line, the relative viability came out at 0.362 with XMD13-2 + Palbociclib (first compound 0.1581 µM); 0.473 with XMD13-2 + Palbociclib (first compound 0.5 µM); 0.407 with XMD13-2 + Palbociclib (first compound 1.581 µM); 0.403 in the test with XMD13-2 + Palbociclib (first compound 5 µM); 0.354 in test [1] (first compound 0.08 µM); 0.454 in test [1] (first compound 0.253 µM). The relative viability in test [1] (first compound 0.8 µM) is 0.388; in test [1] (first compound 2.53 µM) it was 0.299; in test [1] (first compound 8 µM), 0.326; in the test with Dasatinib + Decitabine (first compound 0.005 µM), 0.354; with Dasatinib + Decitabine (first compound 0.01581 µM), 0.262; with Dasatinib + Decitabine (first compound 0.05 µM), 0.247. The relative viability turned out to be 0.188 with Dasatinib + Decitabine (first compound 0.1581 µM) and 0.215 in the test with Dasatinib + Decitabine (first compound 0.5 µM).

Turning to HCC-827, the relative viability with XMD13-2 + Phenformin (first compound 0.05 µM) was 0.443; in the test with XMD13-2 + Phenformin (first compound 0.1581 µM) it was 0.366; with XMD13-2 + Phenformin (first compound 0.5 µM) it was 0.405; with XMD13-2 + Phenformin (first compound 1.581 µM) it was 0.478; in the test with XMD13-2 + Phenformin (first compound 5 µM), 0.392; with XMD13-2 + Palbociclib (first compound 0.05 µM) it was 0.512. Moreover, the relative viability with XMD13-2 + Palbociclib (first compound 0.1581 µM) is 0.462; with XMD13-2 + Palbociclib (first compound 0.5 µM), 0.439; with XMD13-2 + Palbociclib (first compound 1.581 µM), 0.459; with XMD13-2 + Palbociclib (first compound 5 µM), 0.377; in test [1] (first compound 0.08 µM) it was 0.44; in test [1] (first compound 0.253 µM), 0.465. In addition, the relative viability in test [1] (first compound 0.8 µM) is 0.466; in test [1] (first compound 2.53 µM) it was 0.367; in test [1] (first compound 8 µM), 0.391; with Dasatinib + Decitabine (first compound 0.005 µM), 0.35; in the test with Dasatinib + Decitabine (first compound 0.01581 µM) it was 0.271; with Dasatinib + Decitabine (first compound 0.05 µM) it was 0.309. The relative viability with Dasatinib + Decitabine (first compound 0.1581 µM) was found to be 0.224; in the test with Dasatinib + Decitabine (first compound 0.5 µM), 0.159.

HOP-62: the relative viability with XMD13-2 + Phenformin (first compound 0.05 µM) was found to be 0.671; in the test with XMD13-2 + Phenformin (first compound 0.1581 µM) it was 0.687; in the test with XMD13-2 + Phenformin (first compound 0.5 µM), 0.837; with XMD13-2 + Phenformin (first compound 1.581 µM), 0.595; in the test with XMD13-2 + Phenformin (first compound 5 µM) it was 0.553; in the test with XMD13-2 + Palbociclib (first compound 0.05 µM), 0.464. The relative viability is 0.485 with XMD13-2 + Palbociclib (first compound 0.1581 µM); 0.448 in the test with XMD13-2 + Palbociclib (first compound 0.5 µM); 0.413 with XMD13-2 + Palbociclib (first compound 1.581 µM); 0.348 with XMD13-2 + Palbociclib (first compound 5 µM); 0.49 in test [1] (first compound 0.08 µM); 0.423 in test [1] (first compound 0.253 µM). In addition, the relative viability turned out to be 0.461 in test [1] (first compound 0.8 µM); 0.33 in test [1] (first compound 2.53 µM); 0.336 in test [1] (first compound 8 µM); 0.218 in the test with Dasatinib + Decitabine (first compound 0.005 µM); 0.227 in the test with Dasatinib + Decitabine (first compound 0.01581 µM); 0.261 with Dasatinib + Decitabine (first compound 0.05 µM). In addition, the relative viability amounted to 0.23 with Dasatinib + Decitabine (first compound 0.1581 µM) and 0.191 in the test with Dasatinib + Decitabine (first compound 0.5 µM).
